Experimental data taken from patent US5430018A, “Cyclohexapeptide with basic nitrogen containing alkylamide groups” (priority 1991, dated 1995).
Values after ≈ are worked out from the molar mass of the structure shown. Numbered stars: 1 amine (or outer) side, 2 acyl side, 3 side chain; on linkers, the order of the positions; unused ones are H or OH. Bridge positions count the residues as written; N and C are the ends. Square brackets hold non-standard residues; d marks the D form. Peptide text beside a SMILES is read from it. * marks the point of attachment. Tetradecanoyl(10R,12S-Me2) = CC[C@H](C)C[C@H](C)CCCCCCCCC(=O)*; Orn(4R-OH) = O=C([C@H](C[C@@H](O)CN[*:3])N[*:1])[*:2]; hTyr(3R-OH) = N[C@H](C(=O)O)[C@H](O)Cc1ccc(O)cc1; X1 = COC(=O)C[C@@H](O)[C@H](N[*:1])C(=O)[*:2]; X2 = O=C(O)C[C@@H](O)[C@H](N[*:1])C(=O)[*:2]; Pro(3S-OH) = O=C(O)[C@H]1NCC[C@@H]1O; Hyp = O=C(O)[C@@H]1C[C@@H](O)CN1

Legend:
C. albicans MY 1055 = type: cell-based, Candida albicans; settings: MY 1055, 24 h
Method: The compounds of the present invention are active against many fungi and particularly against Candida species. The antifungal properties maybe illustrated with the minimum fungicidal concentration (MFC) determination against certain Candida organisms in a microbroth dilution assay carried out in a Yeast Nitrogen Base (Difco) medium with 1% dextrose (YNBD). In separate assays, the compounds (all Seq. ID No. 1) were solubilized in 10% dimethyl sulfoxide (DMSO) and diluted to 2560 μg/ml. The solution was then diluted to 256 μg/ml in YNBD and dispensed via a multichannel pipetter into the top row of a 96-well plate (each well containing 0.15 ml of YNBD), resulting in a drug concentration of 128 μg/ml. Compounds in the top row were diluted 2-fold down the columns yielding final drug concentrations ranging from 128-0.06 μg/ml. All tests were performed in duplicate. A four-hour broth culture of C. albicans MY 1055 was adjusted using a spectrophotometer at 530 nm to equal a 0.5 McFarland Standard. This yields a cell concentration of 1-5×10^6 colony forming units (CFU)/ml. The 96-well microplates were inoculated using an MIC-2000 (Dynatech), which delivers […] per well, yielding a final inoculum per well of 1.5-7.5×10^3 cells. One column per tray containing drug-free growth control wells was included. […]

C. albicans MY 1028 = type: cell-based, Candida albicans; settings: MY 1028, 24 h

## CC[C@H](C)C[C@H](C)CCCCCCCCC(=O)N[C@H]1C[C@@H](O)CNC(=O)[C@@H]2[C@@H](O)CCN2C(=O)[C@H]([C@H](O)CC(=O)O)NC(=O)[C@H]([C@H](O)Cc2ccc(O)cc2)NC(=O)[C@@H]2C[C@@H](O)CN2C(=O)[C@H]([C@@H](C)O)NC1=O [acid] ({Tetradecanoyl(10R,12S-Me2)}-[Orn(4R-OH)]T[Hyp][hTyr(3R-OH)][X2][Pro(3S-OH)]; lactam 1-C)
C. albicans MY 1055
  MFC C. albicans MY 1055: 0.5 µg/mL (≈ 0.483 µM)
C. albicans MY 1028
  MFC C. albicans MY 1028: 1 µg/mL (≈ 0.967 µM)

## CC[C@H](C)C[C@H](C)CCCCCCCCC(=O)N[C@H]1C[C@@H](O)CNC(=O)[C@@H]2[C@@H](O)CCN2C(=O)[C@H]([C@H](O)CC(=O)OC)NC(=O)[C@H]([C@H](O)Cc2ccc(O)cc2)NC(=O)[C@@H]2C[C@@H](O)CN2C(=O)[C@H]([C@@H](C)O)NC1=O [methyl ester] ({Tetradecanoyl(10R,12S-Me2)}-[Orn(4R-OH)]T[Hyp][hTyr(3R-OH)][X1][Pro(3S-OH)]; lactam 1-C)
C. albicans MY 1055
  MFC C. albicans MY 1055: 0.5 µg/mL (≈ 0.477 µM)
C. albicans MY 1028
  MFC C. albicans MY 1028: 0.25 µg/mL (≈ 0.238 µM)
